Reference: PubChem BioAssay (NCI)
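96-well plates; 48 h exposure; 5 concentrations. Endpoints by linear interpolation between flanking doses. Not reached: highest tested concentration assigned. TGI is the concentration that stops growth completely.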

Experiments:
Test in all cases: growth of human tumour cells (NCI), 48 h
HT29 colon = tested on: HT29 colon
ACHN renal = tested on: ACHN renal
786-0 renal = tested on: 786-0 renal
HCC-2998 colon = tested on: HCC-2998 colon
SR leukemia = tested on: SR leukemia
SNB-75 CNS = tested on: SNB-75 CNS
HCT-116 colon = tested on: HCT-116 colon
SK-MEL-28 melanoma = tested on: SK-MEL-28 melanoma
OVCAR-3 ovarian = tested on: OVCAR-3 ovarian
EKVX NSCLC = tested on: EKVX NSCLC
HCT-15 colon = tested on: HCT-15 colon
OVCAR-5 ovarian = tested on: OVCAR-5 ovarian
CAKI-1 renal = tested on: CAKI-1 renal
COLO 205 colon = tested on: COLO 205 colon
BT-549 breast = tested on: BT-549 breast
SW-620 colon = tested on: SW-620 colon
SNB-19 CNS = tested on: SNB-19 CNS
NCI/ADR-RES ovarian = tested on: NCI/ADR-RES ovarian
SK-MEL-2 melanoma = tested on: SK-MEL-2 melanoma
UACC-257 melanoma = tested on: UACC-257 melanoma
NCI-H226 lung = tested on: NCI-H226 lung
CCRF-CEM leukemia = tested on: CCRF-CEM leukemia
T-47D breast = tested on: T-47D breast
UACC-62 melanoma = tested on: UACC-62 melanoma
SF-268 CNS = tested on: SF-268 CNS
K-562 leukemia = tested on: K-562 leukemia
HL-60(TB) leukemia = tested on: HL-60(TB) leukemia
RXF 393 renal = tested on: RXF 393 renal
OVCAR-4 ovarian = tested on: OVCAR-4 ovarian
MOLT-4 leukemia = tested on: MOLT-4 leukemia
A498 renal = tested on: A498 renal
MALME-3M melanoma = tested on: MALME-3M melanoma
IGROV1 ovarian = tested on: IGROV1 ovarian
NCI-H460 lung = tested on: NCI-H460 lung
U251 CNS = tested on: U251 CNS
MDA-MB-231 breast = tested on: MDA-MB-231 breast
OVCAR-8 ovarian = tested on: OVCAR-8 ovarian
RPMI-8226 leukemia = tested on: RPMI-8226 leukemia
MDA-MB-435 = tested on: MDA-MB-435
SK-OV-3 ovarian = tested on: SK-OV-3 ovarian
MCF7 breast = tested on: MCF7 breast
KM12 colon = tested on: KM12 colon
TK-10 renal = tested on: TK-10 renal
M14 melanoma = tested on: M14 melanoma
SK-MEL-5 melanoma = tested on: SK-MEL-5 melanoma
LOX IMVI melanoma = tested on: LOX IMVI melanoma
HOP-62 NSCLC = tested on: HOP-62 NSCLC
NCI-H522 lung = tested on: NCI-H522 lung
PC-3 prostate = tested on: PC-3 prostate
A549 NSCLC = tested on: A549 NSCLC
NCI-H23 lung = tested on: NCI-H23 lung
SF-295 CNS = tested on: SF-295 CNS
MDA-N = tested on: MDA-N
UO-31 renal = tested on: UO-31 renal
DU-145 prostate = tested on: DU-145 prostate
SN12C renal = tested on: SN12C renal
HOP-92 NSCLC = tested on: HOP-92 NSCLC
HS 578T breast = tested on: HS 578T breast
SF-539 CNS = tested on: SF-539 CNS

CC(=O)c1c(C)cn(S(=O)(=O)NC(=O)Nc2nncs2)c1C
TGI (HT29 colon): > 100 µM
TGI (ACHN renal): > 100 µM
TGI (786-0 renal): > 100 µM
TGI (HCC-2998 colon): > 100 µM
TGI (SR leukemia): > 100 µM
TGI (SNB-75 CNS): > 100 µM
TGI (HCT-116 colon): > 100 µM
TGI (SK-MEL-28 melanoma): > 100 µM
TGI (OVCAR-3 ovarian): > 100 µM
TGI (EKVX NSCLC): > 100 µM
TGI (HCT-15 colon): > 100 µM
TGI (OVCAR-5 ovarian): > 100 µM
TGI (CAKI-1 renal): > 100 µM
TGI (COLO 205 colon): > 100 µM
TGI (BT-549 breast): > 100 µM
TGI (SW-620 colon): > 100 µM
TGI (SNB-19 CNS): > 100 µM
TGI (NCI/ADR-RES ovarian): > 100 µM
TGI (SK-MEL-2 melanoma): > 100 µM
TGI (UACC-257 melanoma): > 100 µM
TGI (NCI-H226 lung): > 100 µM
TGI (CCRF-CEM leukemia): 78.1 µM
TGI (T-47D breast): > 100 µM
TGI (UACC-62 melanoma): > 100 µM
TGI (SF-268 CNS): > 100 µM
TGI (K-562 leukemia): > 100 µM
TGI (HL-60(TB) leukemia): > 100 µM
TGI (RXF 393 renal): > 100 µM
TGI (OVCAR-4 ovarian): > 100 µM
TGI (MOLT-4 leukemia): > 100 µM
TGI (A498 renal): > 100 µM
TGI (MALME-3M melanoma): > 100 µM
TGI (IGROV1 ovarian): > 100 µM
TGI (NCI-H460 lung): > 100 µM
TGI (U251 CNS): > 100 µM
TGI (MDA-MB-231 breast): > 100 µM
TGI (OVCAR-8 ovarian): > 100 µM
TGI (RPMI-8226 leukemia): > 100 µM
TGI (MDA-MB-435): > 100 µM
TGI (SK-OV-3 ovarian): > 100 µM
TGI (MCF7 breast): > 100 µM
TGI (KM12 colon): > 100 µM
TGI (TK-10 renal): > 100 µM
TGI (M14 melanoma): > 100 µM
TGI (SK-MEL-5 melanoma): > 100 µM
TGI (LOX IMVI melanoma): > 100 µM
TGI (HOP-62 NSCLC): > 100 µM
TGI (NCI-H522 lung): > 100 µM
TGI (PC-3 prostate): > 100 µM
TGI (A549 NSCLC): > 100 µM
TGI (NCI-H23 lung): > 100 µM
TGI (SF-295 CNS): > 100 µM
TGI (MDA-N): > 100 µM
TGI (UO-31 renal): > 100 µM
TGI (DU-145 prostate): > 100 µM
TGI (SN12C renal): > 100 µM
TGI (HOP-92 NSCLC): > 100 µM
TGI (HS 578T breast): > 100 µM

COC(=O)Cc1c([C@H]2[C@H](CC(=O)OC)c3ccccc3N2C(=O)C(F)(F)F)[nH]c2ccccc12
TGI (HT29 colon): > 100 µM
TGI (ACHN renal): > 100 µM
TGI (786-0 renal): > 100 µM
TGI (HCC-2998 colon): > 100 µM
TGI (SR leukemia): 82.3 µM
TGI (SNB-75 CNS): 84.6 µM
TGI (HCT-116 colon): > 100 µM
TGI (SK-MEL-28 melanoma): > 100 µM
TGI (OVCAR-3 ovarian): 38 µM
TGI (EKVX NSCLC): > 100 µM
TGI (HCT-15 colon): > 100 µM
TGI (OVCAR-5 ovarian): > 100 µM
TGI (CAKI-1 renal): > 100 µM
TGI (COLO 205 colon): 36.1 µM
TGI (BT-549 breast): 97.2 µM
TGI (SW-620 colon): > 100 µM
TGI (SNB-19 CNS): > 100 µM
TGI (NCI/ADR-RES ovarian): 91.3 µM
TGI (SK-MEL-2 melanoma): 58.3 µM
TGI (UACC-257 melanoma): > 100 µM
TGI (NCI-H226 lung): > 100 µM
TGI (CCRF-CEM leukemia): 56.2 µM
TGI (T-47D breast): > 100 µM
TGI (UACC-62 melanoma): 30.3 µM
TGI (SF-268 CNS): > 100 µM
TGI (K-562 leukemia): > 100 µM
TGI (HL-60(TB) leukemia): > 100 µM
TGI (RXF 393 renal): 98.4 µM
TGI (OVCAR-4 ovarian): > 100 µM
TGI (MOLT-4 leukemia): 38.4 µM
TGI (SF-539 CNS): > 100 µM
TGI (A498 renal): > 100 µM
TGI (MALME-3M melanoma): 90.6 µM
TGI (IGROV1 ovarian): > 100 µM
TGI (NCI-H460 lung): 55 µM
TGI (U251 CNS): 47.8 µM
TGI (MDA-MB-231 breast): 73.4 µM
TGI (OVCAR-8 ovarian): > 100 µM
TGI (RPMI-8226 leukemia): > 100 µM
TGI (MDA-MB-435): 62 µM
TGI (SK-OV-3 ovarian): > 100 µM
TGI (MCF7 breast): > 100 µM
TGI (TK-10 renal): > 100 µM
TGI (SK-MEL-5 melanoma): 24.8 µM
TGI (LOX IMVI melanoma): > 100 µM
TGI (HOP-62 NSCLC): > 100 µM
TGI (NCI-H522 lung): 56.2 µM
TGI (PC-3 prostate): > 100 µM
TGI (A549 NSCLC): > 100 µM
TGI (NCI-H23 lung): > 100 µM
TGI (SF-295 CNS): 80.7 µM
TGI (MDA-N): > 100 µM
TGI (UO-31 renal): > 100 µM
TGI (DU-145 prostate): > 100 µM
TGI (SN12C renal): > 100 µM
TGI (HOP-92 NSCLC): > 100 µM
TGI (HS 578T breast): 92.1 µM
